This note sets out measurements from patent US9663551B2, “Solanidine-derived compounds” (priority 2013, dated 2017).

Several values for one entry are separate records, joined by “and”; a condition that tells them apart may be missing. Equal entries are not always repeated.

Holding throughout (type): in vivo
For test [1], the system named is Macrosiphum euphorbiae larvae. The test can be described thus: Effects on larval survival (artificial medium feeding). The note with it: for Percentage of larval survival: after 16 days of treatment; for aphicide activity on larvae compared with 0.2 mM solanidine: 0.002 mM; for aphicide properties with respect to larvae compared with solanidine: 0.02 mM. As for the experimental part: (§1) The Macrosiphum euphorbiae population was initiated from an apterous female provided by the Laboratory of Functional Biology, Insects and Interactions of the INRA/INSA of Villeurbanne in 2004. She was captured in 1995 on an eggplant in the Rhone-Alps region. The Macrosiphum euphorbiae aphids were raised on Desiree variety potato plants indoors at 20±1° C., 60±5% relative humidity and under a photoperiod of 16 hours of light and 8 hours of darkness.
For the tests on Macrosiphum euphorbiae larvae, adults were isolated and placed in PVC cages on artificial medium for one day in order to synchronize their lineage. Neonates (40 per experiment), less than 24 hours old, are placed in PVC cages containing artificial medium alone (control experiment) or artificial medium supplemented with 0.002, 0.02 or 0.2 mM active compound.
(§2) The individuals were monitored every two days over a period of 16 days. With each recording, the artificial medium is changed. Each cage houses five aphids.
(§3) A standard diet was used as the basis for carrying out the physiological monitoring. Its composition was described by Febvay et al. (J. Zool. 1988, 66(11), 2449-2453) and then modified according to the conditions of Down et al. (J. Insect Physiol. 1996, 42(11-12), 1035-1045) as shown in Table 2. The medium is supplemented with active compound and placed between two layers of Parafilm® in sterile conditions.
(§4) The statistical analyses were performed using the Statistica 10 software (StatSoft®). To compare aphid survival in comparison with the control, Pearson's X^2 test (α<0.05) was applied. To compare the compounds in terms of concentration and nature, Fisher's least significant difference (LSD) test was applied (α<0.05). Daily fecundity was also studied using Fisher's LSD test (α<0.05).
The biological tests were carried out on Macrosiphum euphorbiae neonates less than 24 hours old. They are placed on artificial medium containing chaconine, solanine, solanidine, 100, 101 or 102.

Test [2] concerns Macrosiphum euphorbiae adults. The test can be described thus: Effects on adult survival (artificial medium feeding). The following applies: for Percentage of adult survival: after 16 days of treatment. As for the experimental part: as §1
(§5) For the tests on Macrosiphum euphorbiae adults, neonates (50 per experiment) resulting from synchronization are raised in petri dishes on leaves of Desiree variety potato plants for 10 days. Once the adult stage is reached, they are placed in PVC cages containing artificial medium alone (control experiment) or artificial medium supplemented with 0.002, 0.02 or 0.2 mM active compound.
as §2, §3, §4
The biological tests of compounds 100, 101 and 102 on Macrosiphum euphorbiae adults are presented in FIG. 2, and are compared to a control experiment.

The subject of test [3] is Macrosiphum euphorbiae reproduction. The test is described as follows: Effects on reproduction (daily fecundity per aphid). Here is the method: as §5, §2, §4
Data regarding the number of larvae resulting from parthenogenesis can be used to calculate daily fecundity per aphid. The results are presented in FIG. 3, wherein the number 10 represents the control, the reference numbers 12, 14 and 16 represent the results of compound 100 at the concentrations of 0.002, 0.02 and 0.2 mM, respectively, the reference numbers 18, 20 and 22 represent the results of compound 101 at the concentrations of 0.002, 0.02 and 0.2 mM, respectively, the reference numbers 24, 26, and 28 represent the results of compound 102 at the concentrations of 0.002, 0.02 and 0.2 mM, respectively.

Turning to `C[C@H]1CC[C@@H]2[C@@H](C)[C@H]3[C@H](C[C@H]4[C@@H]5CC=C6C[C@@H](O[C@@H]7O[C@H](CO)[C@H](O[C@@H]8O[C@@H](C)[C@H](O)[C@@H](O)[C@H]8O)[C@H](O)[C@@H]7O[C@@H]7O[C@@H](C)[C@@H](O)[C@@H](O)[C@H]7O)CC[C@]6(C)[C@H]5CC[C@]34C)N2C1` [Chaconine, chaconine, reference compound], the “Percentage of larval survival” value in test [1] (0.002 mM in artificial medium) was found to be 72a %; in test [1] (0.02 mM in artificial medium) it was 70a %; in test [1] (0.2 mM in artificial medium) it was 52b %.

For orientation: mortality means the percentage killed. On to `C[C@H]1CCC2[C@@H](C)C3C(CC4C5CC=C6C[C@@H](OCCCn7cc(CO[C@@H]8OC(CO)[C@@H](O)C(O)C8O)nn7)CC[C@]6(C)C5CC[C@@]43C)N2C1` (stereo partly drawn) [Compound 100, 3-O-{3-[4-(β-D-glucopyranosyloxymethyl)-1,2,3-triazol-1-yl]propyl}solanidine], for which the “activity on adult survival in comparison with the control” value (“activity on adult survival” for short) in test [2] (0.002 mM) is given as “no significant activity”; in test [2] (0.02 mM), “no significant activity”; in test [2] (0.2 mM), “notable effect”. Besides, the entries for the “Percentage of adult survival” value in test [2] (0.002 mM in artificial medium), in test [2] (0.02 mM in artificial medium) and in test [2] (0.2 mM in artificial medium) were 97a %, 81b % and 46c %, respectively. Also, the mortality at 200 µM in test [2] (Macrosiphum euphorbiae, 0.2 mM, read-out: mortality rate of adults) is 54%. Moreover, the “effect on reproduction in comparison with the control” value (“effect on reproduction in comparison” for short) in test [3] (0.02 mM) and in test [3] (0.2 mM) was “significantly reduce reproduction” each time. Moreover, in test [1], the “aphicide activity on larvae compared with 0.2 mM solanidine” value is “lower activity than 0.2 mM solanidine”. Also, the “Percentage of larval survival” value in test [1] (0.002 mM in artificial medium) was 76a %; in test [1] (0.02 mM in artificial medium), 26% and 26b %; in test [1] (0.2 mM in artificial medium), 22% and 22c %. Also, the “aphicide properties with respect to larvae compared with solanidine” value (shortened to “aphicide properties … compared with solanidine”) in test [1] was “stronger than with solanidine”.

`C[C@H]1CCC2[C@@H](C)C3C(CC4C5CC=C6C[C@@H](OCCCn7cc(CO[C@@H]8OC(CO)[C@H](O)C(O)C8O)nn7)CC[C@]6(C)C5CC[C@@]43C)N2C1` (stereo partly drawn) [Compound 101, 3-O-{3-[4-(β-D-galactopyranosyloxymethyl)-1,2,3-triazol-1-yl]propyl}solanidine]: the results for the “Percentage of adult survival” value in test [2] (0.002 mM in artificial medium), in test [2] (0.02 mM in artificial medium) and in test [2] (0.2 mM in artificial medium) were 90a %, 73b % and 54c %, respectively. Further, the “activity on adult survival” value in test [2] (0.02 mM) and in test [2] (0.2 mM) was “drop in the survival rate” each time. In addition, the “effect on reproduction in comparison” value in test [3] (0.02 mM) and in test [3] (0.2 mM) was “significantly reduce reproduction” throughout. The “aphicide activity on larvae compared with 0.2 mM solanidine” value in test [1] is reported as “lower activity than 0.2 mM solanidine”. The “Percentage of larval survival” value in test [1] (0.002 mM in artificial medium) was 62a %; in test [1] (0.02 mM in artificial medium), 33% and 33b %; in test [1] (0.2 mM in artificial medium), 24% and 24c %. Besides, the “aphicide properties … compared with solanidine” value in test [1] is listed as “stronger than with solanidine”.

For the compound `CC1O[C@@H](OCc2cn(CCCO[C@H]3CC[C@@]4(C)C(=CCC5C6CC7C([C@H](C)C8CC[C@H](C)CN78)[C@@]6(C)CCC54)C3)nn2)C(O)C(O)[C@H]1O` (stereo partly drawn) [Compound 102, 3-O-{3-[4-(α-L-rhamnopyranosyloxymethyl)-1,2,3-triazol-1-yl]propyl}solanidine], the “activity on adult survival” value is on record as “no significant aphicide activity” in test [2] (0.002 mM), “marked effect on the survival of adults” in test [2] (0.02 mM) and “marked effect on the survival of adults” in test [2] (0.2 mM). The “Percentage of adult survival” value is listed as 95a % in test [2] (0.002 mM in artificial medium), 67b % in test [2] (0.02 mM in artificial medium) and 7d % in test [2] (0.2 mM in artificial medium). Moreover, the “effect on reproduction in comparison” value in test [3] (0.02 mM) and in test [3] (0.2 mM) was “significantly reduce reproduction” throughout. For the same compound, the “aphicide activity on larvae compared with 0.2 mM solanidine” value in test [1] is given as “lower activity than 0.2 mM solanidine”. In addition, the “Percentage of larval survival” value was 84a % in test [1] (0.002 mM in artificial medium); 32% and 32b % in test [1] (0.02 mM in artificial medium); 6% and 6d % in test [1] (0.2 mM in artificial medium). Further, the “aphicide properties … compared with solanidine” value in test [1] is “stronger than with solanidine”.

In the case of `C[C@H]1CC[C@@H]2[C@@H](C)[C@H]3[C@H](C[C@H]4[C@@H]5CC=C6C[C@@H](O)CC[C@]6(C)[C@H]5CC[C@]34C)N2C1` [Solanidine, solanidine], the “Percentage of larval survival” value in test [1] (0.002 mM in artificial medium) amounted to 74a %; in test [1] (0.02 mM in artificial medium), 60d %; in test [1] (0.2 mM in artificial medium) it was 52b %.

Turning to `C[C@H]1CC[C@@H]2[C@@H](C)[C@H]3[C@H](C[C@H]4[C@@H]5CC=C6C[C@@H](O[C@@H]7O[C@H](CO)[C@H](O)[C@H](O[C@@H]8O[C@H](CO)[C@@H](O)[C@H](O)[C@H]8O)[C@H]7O[C@H]7O[C@@H](C)[C@H](O)[C@@H](O)[C@H]7O)CC[C@]6(C)[C@H]5CC[C@]34C)N2C1` [Solanine, solanine, reference compound], the “Percentage of larval survival” value is reported as 82a % in test [1] (0.002 mM in artificial medium), 80a % in test [1] (0.02 mM in artificial medium) and 64c % in test [1] (0.2 mM in artificial medium).
